The record followed here is PubChem BioAssay (NCI).

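Step 1: Grow cells in 96-well plates. Step 2: Expose to compound for 48 hours at 5 concentrations. Step 3: Interpolate endpoints linearly; if unreached, use highest concentration. Here, GI50 denotes the concentration required for 50% inhibition of growth. TGI marks complete inhibition of growth.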

Test systems include COLO 205 colon; HCC-2998 colon; HCT-116 colon; HL-60(TB) leukemia; M14 melanoma; MDA-MB-231 breast; NCI-H23 lung; OVCAR-5 ovarian; SF-268 CNS; SW-620 colon.
What all share (assay): NCI anticancer screen, dose series, 48 h

Consider `Cc1cc(S(=O)(=O)/N=C/N(C)C)c(SC(=O)c2ccc(Cl)cc2)cc1Cl`, for which the GI50 in the experiment with COLO 205 colon is 55.9 µM; in the experiment with HCC-2998 colon it was 17.9 µM; in the experiment on HCT-116 colon, 24.1 µM; in the experiment with HL-60(TB) leukemia it was 42.5 µM; in the experiment with M14 melanoma it was 89.8 µM; with MDA-MB-231 breast it was 25.8 µM. The GI50 with NCI-H23 lung is 23.2 µM; with OVCAR-5 ovarian, 48.6 µM; with SF-268 CNS, 50.8 µM; with SW-620 colon, 27.6 µM. In addition, the TGI with COLO 205 colon is greater than 100 µM; in the experiment with HCC-2998 colon, 38.2 µM; with HCT-116 colon it was 59.3 µM; in the experiment on HL-60(TB) leukemia, greater than 100 µM; with M14 melanoma, greater than 100 µM; in the experiment on MDA-MB-231 breast, 69.9 µM. The TGI is 56.2 µM with NCI-H23 lung, greater than 100 µM with OVCAR-5 ovarian, greater than 100 µM in the experiment on SF-268 CNS and 72.3 µM with SW-620 colon.
On to `Cc1cn(C2C=CC(CO)O2)c(=O)[nH]c1=O` (stereo not given), for which the TGI in the experiment on COLO 205 colon, with HCC-2998 colon, in the experiment with HCT-116 colon, with HL-60(TB) leukemia, in the experiment on M14 melanoma and in the experiment with MDA-MB-231 breast was greater than 1000 µM each time. Also, the TGI with NCI-H23 lung, in the experiment on OVCAR-5 ovarian, with SF-268 CNS and with SW-620 colon was greater than 1000 µM throughout.
Regarding `CCN(Cc1ccc(F)cc1)c1ccc(CO)c(C)c1`, the GI50 in the experiment with COLO 205 colon is 5.7 µM; with HCC-2998 colon it was 14.6 µM; with HCT-116 colon, 2.02 µM; in the experiment with HL-60(TB) leukemia, 9.86 µM; in the experiment with M14 melanoma, 14.3 µM; in the experiment with MDA-MB-231 breast, 16.6 µM. For the same compound, the GI50 with NCI-H23 lung is 13.2 µM; with OVCAR-5 ovarian, 0.856 µM; with SF-268 CNS, 24.9 µM; with SW-620 colon, 14.5 µM. Besides, the TGI worked out at 19 µM in the experiment with COLO 205 colon; 29.4 µM in the experiment on HCC-2998 colon; 17.6 µM with HCT-116 colon; 39.3 µM with HL-60(TB) leukemia; 37.6 µM with M14 melanoma; 35.7 µM with MDA-MB-231 breast. The TGI in the experiment on NCI-H23 lung was 37.1 µM; in the experiment on OVCAR-5 ovarian, 4.46 µM; in the experiment on SF-268 CNS it was greater than 58.9 µM; in the experiment on SW-620 colon it was 54.1 µM.
On to `O=C(O)c1cn(C2CC2)c2cc(N3CCN(C(=O)Nc4nc(-c5ccccc5)cs4)CC3)c(F)cc2c1=O`, for which the GI50 with COLO 205 colon is 2.84 µM; in the experiment on HCC-2998 colon it was 2.24 µM; in the experiment with HCT-116 colon it was 0.647 µM; in the experiment on HL-60(TB) leukemia it was 1.62 µM; with M14 melanoma, 2.06 µM; in the experiment with MDA-MB-231 breast, 2.3 µM. Moreover, the GI50 was 0.654 µM with NCI-H23 lung, 2.36 µM in the experiment on OVCAR-5 ovarian, 0.474 µM in the experiment with SF-268 CNS and 3.2 µM in the experiment on SW-620 colon. The TGI in the experiment with COLO 205 colon was 9.63 µM; with HCC-2998 colon, greater than 100 µM; with HCT-116 colon it was greater than 100 µM; with HL-60(TB) leukemia it was 4.41 µM; in the experiment on M14 melanoma it was greater than 100 µM; in the experiment on MDA-MB-231 breast, 9.94 µM. Further, the TGI is 14 µM in the experiment with NCI-H23 lung, greater than 100 µM in the experiment on OVCAR-5 ovarian, greater than 100 µM with SF-268 CNS and greater than 100 µM in the experiment on SW-620 colon.
For `CC(C)N1CCN(Cc2ccc3c(NNC(=O)c4ccccc4)nc4cc(F)ccc4n23)CC1`, the GI50 in the experiment on COLO 205 colon was 0.273 µM; in the experiment on HCC-2998 colon, 0.699 µM; in the experiment with HCT-116 colon, 0.238 µM; in the experiment with HL-60(TB) leukemia, 0.322 µM; in the experiment on M14 melanoma, 0.23 µM; with MDA-MB-231 breast, 0.497 µM. The GI50 in the experiment on NCI-H23 lung was 0.93 µM; in the experiment with OVCAR-5 ovarian, 0.674 µM; with SF-268 CNS, 0.355 µM; with SW-620 colon, 0.463 µM. The TGI is 3.47 µM in the experiment with COLO 205 colon; 6.45 µM in the experiment with HCC-2998 colon; 1.45 µM with HCT-116 colon; 1.43 µM in the experiment on HL-60(TB) leukemia; 3.28 µM in the experiment with M14 melanoma; 2.48 µM with MDA-MB-231 breast. Besides, the TGI amounted to 8.94 µM with NCI-H23 lung, 6.83 µM in the experiment on OVCAR-5 ovarian, 12.7 µM in the experiment with SF-268 CNS and 2.12 µM with SW-620 colon.
As for `COC(=O)C1OC2(CCCC3CC32)O[C@H]1C(=O)OC` (stereo not given in full), the TGI in the experiment on COLO 205 colon, in the experiment on HCC-2998 colon, with HCT-116 colon, in the experiment on HL-60(TB) leukemia, with M14 melanoma and in the experiment with MDA-MB-231 breast was greater than 100 µM in each case. The TGI in the experiment with NCI-H23 lung, with OVCAR-5 ovarian, with SF-268 CNS and in the experiment on SW-620 colon was greater than 100 µM throughout.
On to `CCN1C(=O)CCCc2c1ccc(Nc1ncc(Cl)c(NC3[C@@H](C(N)=O)[C@@H]4C=C[C@H]3C4)n1)c2OC` (stereo not given in full), for which the GI50 in the experiment on COLO 205 colon is 0.633 µM; in the experiment with HCC-2998 colon, 1.69 µM; with HCT-116 colon, 0.805 µM; in the experiment with HL-60(TB) leukemia, 0.667 µM; in the experiment on M14 melanoma, 0.77 µM; with MDA-MB-231 breast, 1.95 µM. In addition, the GI50 with NCI-H23 lung was 1.56 µM; with OVCAR-5 ovarian, 1.34 µM; with SF-268 CNS it was 2.01 µM; with SW-620 colon, 0.564 µM. For the same compound, the TGI was 2.48 µM in the experiment on COLO 205 colon; 3.57 µM in the experiment with HCC-2998 colon; 7.43 µM in the experiment on HCT-116 colon; 5.46 µM in the experiment on HL-60(TB) leukemia; 2.32 µM with M14 melanoma; 14.4 µM with MDA-MB-231 breast. Also, the TGI was 9.47 µM in the experiment with NCI-H23 lung, greater than 22.2 µM with OVCAR-5 ovarian, 14.3 µM in the experiment on SF-268 CNS and 3.48 µM in the experiment with SW-620 colon.
In the case of `COc1cc2c(cc1OC)C(Sc1ccc(SC)cc1)c1c(nc(N)c(C#N)c1N)O2` (stereo not given), the GI50 was 1.71 µM in the experiment with COLO 205 colon; 1.8 µM in the experiment on HCC-2998 colon; 1.62 µM in the experiment with HCT-116 colon; 1.51 µM in the experiment with HL-60(TB) leukemia; 1.74 µM in the experiment with M14 melanoma; 1.55 µM in the experiment on MDA-MB-231 breast. Besides, the GI50 in the experiment with NCI-H23 lung is 1.78 µM; in the experiment on OVCAR-5 ovarian, 1.87 µM; in the experiment with SF-268 CNS it was 1.6 µM; in the experiment with SW-620 colon, 1.92 µM. Also, the TGI amounted to 3.41 µM in the experiment on COLO 205 colon; 3.28 µM in the experiment on HCC-2998 colon; 3.01 µM in the experiment with HCT-116 colon; 3.59 µM with HL-60(TB) leukemia; 3.24 µM in the experiment with M14 melanoma; 2.92 µM in the experiment on MDA-MB-231 breast. Also, the TGI in the experiment with NCI-H23 lung came to 3.55 µM; in the experiment with OVCAR-5 ovarian it was 3.5 µM; with SF-268 CNS, 3.1 µM; in the experiment with SW-620 colon it was 3.97 µM.
